Experimental data as given in PubChem BioAssay (NCI).
Values joined by “and” are separate entries in the source; they are usually repeats but may differ in a detail not shown here. Identical values can stand only once.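 Five concentrations, 48 hours, 96-well plates. GI50 = concentration required for 50% inhibition of growth. TGI denotes the concentration required for complete inhibition of growth.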

What was measured:
Assay in all cases: growth of human tumour cells (NCI), 48 h
SK-MEL-5 melanoma = test system: SK-MEL-5 melanoma
SK-MEL-2 melanoma = test system: SK-MEL-2 melanoma
NCI-H522 lung = test system: NCI-H522 lung
HL-60(TB) leukemia = test system: HL-60(TB) leukemia
A549 NSCLC = test system: A549 NSCLC
NCI-H460 lung = test system: NCI-H460 lung
NCI-H226 lung = test system: NCI-H226 lung
MCF7 breast = test system: MCF7 breast
RXF 393 renal = test system: RXF 393 renal
K-562 leukemia = test system: K-562 leukemia

N#Cc1ccc(/C=C/C(=O)c2ccccc2)cc1
GI50 (SK-MEL-5 melanoma): 14 µM and 12.6 µM
TGI (SK-MEL-5 melanoma): 26.9 µM and 25.4 µM
GI50 (SK-MEL-2 melanoma): 18.9 µM and 18.8 µM
TGI (SK-MEL-2 melanoma): 39.1 µM and 37.8 µM
GI50 (NCI-H522 lung): 10.4 µM and 14.7 µM
TGI (NCI-H522 lung): 22.4 µM and 31.5 µM
GI50 (HL-60(TB) leukemia): 9.07 µM and 3.2 µM
TGI (HL-60(TB) leukemia): 48.4 µM and > 33.1 µM
GI50 (A549 NSCLC): 14.8 µM and 15.4 µM
TGI (A549 NSCLC): 27.9 µM and 31.8 µM
GI50 (NCI-H460 lung): 14.5 µM and 8.35 µM
TGI (NCI-H460 lung): 28.9 µM and 22.4 µM
GI50 (NCI-H226 lung): 27.2 µM and 15.3 µM
TGI (NCI-H226 lung): > 68.8 µM and 31 µM
GI50 (MCF7 breast): 2.44 µM and 1.71 µM
TGI (MCF7 breast): 9.25 µM and 5.38 µM
GI50 (RXF 393 renal): 7.15 µM and 5.93 µM
TGI (RXF 393 renal): 19.3 µM and 18.2 µM
GI50 (K-562 leukemia): 2.83 µM and 2.3 µM
TGI (K-562 leukemia): > 26.2 µM

CCc1ccc([O-])c(C=NCCCN(C)CCCN=Cc2cc(C)ccc2[O-])c1.[Co+3].[N-]=[N+]=[N-]
GI50 (SK-MEL-5 melanoma): 50 µg/mL and 139 µg/mL
TGI (SK-MEL-5 melanoma): 50 µg/mL and > 150 µg/mL
GI50 (SK-MEL-2 melanoma): 50 µg/mL and 44.7 µg/mL
TGI (SK-MEL-2 melanoma): 50 µg/mL and 135 µg/mL
GI50 (NCI-H522 lung): 50 µg/mL and > 150 µg/mL
TGI (NCI-H522 lung): 50 µg/mL and > 150 µg/mL
GI50 (HL-60(TB) leukemia): 61 µg/mL
TGI (HL-60(TB) leukemia): > 150 µg/mL
GI50 (A549 NSCLC): 50 µg/mL and 106 µg/mL
TGI (A549 NSCLC): 50 µg/mL and > 150 µg/mL
GI50 (NCI-H460 lung): 50 µg/mL and > 150 µg/mL
TGI (NCI-H460 lung): 50 µg/mL and > 150 µg/mL
GI50 (NCI-H226 lung): 50 µg/mL and 32.5 µg/mL
TGI (NCI-H226 lung): 50 µg/mL and 88.6 µg/mL
GI50 (MCF7 breast): 50 µg/mL and > 150 µg/mL
TGI (MCF7 breast): 50 µg/mL and > 150 µg/mL
GI50 (RXF 393 renal): 5.76 µg/mL and 20.4 µg/mL
TGI (RXF 393 renal): 35.5 µg/mL and 46 µg/mL
GI50 (K-562 leukemia): 5 µg/mL and 74 µg/mL
